Laboratory results: patent US20090324752A1, “COSMETIC USE OF ACTIVE INGREDIENTS INCREASING THE PRODUCTION OF GROWTH FACTORS” (CHANEL PARFUMS BEAUTE, priority 2006, published 2009)

Tested on: Human dermal fibroblasts
Assay: Stimulation of fibroblast proliferation by PDGF and FGFb (CellTiter 96 Aqueous One, absorbance 490 nm)
Format: cell-based
Settings: 24 h, compared to the control (untreated = 100.00)
Experimental: Human dermal fibroblasts from a single donor were obtained from Cascade. At the 7rd passage, cells were seeded in 96 well plates and cultured in Dulbecco's modified Eagle medium DMEM (Gibco BRL, Gaithersburg, USA) supplemented with 10% foetal bovine serum (FBS, PAA, Linz, Austria), […] L-glutamine (Gibco) and 1% penicillin/streptomycin (Gibco). All cell culture was performed at […] in 5% CO2 and 95% air. This fibroblast culture was incubated by two growth factors ([…] and FGFb) at various concentrations for 24 h. After 24 hours incubation, 200 μL dosed media from 96-well plate were removed. CellTiter 96 Aqueous One Solution Reagent was used as described by the manufacturer. The absorbance at 490 nm was recorded using a plate reader to evaluate cell proliferation. The controls were the non treated cells. The experiment was conducted in 8 times by concentration.

| Substance | Stimulation (%) of fibroblast proliferation (1 ng/ml) [%] | Stimulation (%) of fibroblast proliferation (10 ng/ml) [%] | Stimulation (%) of fibroblast proliferation (30 ng/ml) [%] |
| --- | --- | --- | --- |
| PDGF | 107.20 | 154.37 | 185.58 |
| FGFb (157 aa): Basic Fibroblast Growth Factor (157 aa), growth factor added to fibroblast culture | 141.22 | 149.20 |  |
